Consider three molecules from patent US4474790A, “Thioalkylamide of nicotinic acid 1-oxide, its salts, and pharmaceutical compositions” (SANOFI, priority 1981, dated 1984).

Data set [1] concerns the target T1, gastric histamine H2 receptor (Cavia porcellus, UniProt P47747).
T1 construct: isolated stomach mucous membrane of the Guinea pig; from tissue; host or cells: isolated guinea pig stomach mucous membrane
The arrangement: species or system guinea pig. The conditions noted are these: for IC50: concentration inhibiting by 50% the secretion induced by histamine, isolated stomach mucous membrane of the Guinea pig, CM 57755 as dihydrochloride; for IC50 m/IC50 o: ratio gastric IC50 / cardiac IC50.

The subject of data set [2] is hypersecretion provoked by the dimaprit. The experiment in a line: antisecretory activity in the cat having a gastric fistula, dimaprit as hypersecretor (Emas et al.). The class given is in vivo. Conditions: dimaprit 640 mcg/kg/hour. Here is the method: The antisecretory activity of the products of the present invention was assessed in the cat having a gastric fistula according to the method of Emas et al.(Gastroenterology, 1969; 39, 771) using, as hypersecretor, dimaprit at the dose of 640 mcg/kg/hour.

Data set [3] in a line: acute toxicity (LD50) in the rat. Conditions: in vivo, intravenous route.
For data set [4], the target named is T2, cardiac histamine H2 receptor (Cavia porcellus, UniProt P47747).
T2 construct: isolated right atrium of the Guinea pig; from tissue; host or cells: isolated guinea pig right atrium
Conditions: concentration inhibiting by 50% the increase in frequency induced by histamine; isolated right atrium of the Guinea pig; CM 57755 as dihydrochloride.

The subject of data set [5] is gastric histamine H2 receptors. The experiment in a line: antisecretory activity: antagonism to the hypersecretion provoked by histamine in the rat (Ghosh and Schild). Conditions: intravenous route, histamine infusion equivalent to 15 mcmol/kg/hour. The class given is in vivo. The text has this: The antagonistic activity of the products of the present invention towards the gastric histamine H2 receptors was confirmed in the test of the antisecretory activity based on the antagonism to the hypersecretion provoked by histamine in the rat according to the method of Ghosh and Schild (Brit. J. Pharmacol.1958; 13, 54). According to this test, a gastric acid hypersecretion is induced by intravenous infusion of a submaximal dose equivalent to 15 mcmol/kg/hour and the gastric secretion is measured by perfusion of a physiological solution at a constant speed in the stomach of the animal.

The subject of a further data set is cardiac H2 receptors. The conditions noted are these: treatment of ulcerous disease; Clinica Terapeutica, 1981, 96, 81-91; cited from earlier work.

T1 sequence (P47747 whole entry): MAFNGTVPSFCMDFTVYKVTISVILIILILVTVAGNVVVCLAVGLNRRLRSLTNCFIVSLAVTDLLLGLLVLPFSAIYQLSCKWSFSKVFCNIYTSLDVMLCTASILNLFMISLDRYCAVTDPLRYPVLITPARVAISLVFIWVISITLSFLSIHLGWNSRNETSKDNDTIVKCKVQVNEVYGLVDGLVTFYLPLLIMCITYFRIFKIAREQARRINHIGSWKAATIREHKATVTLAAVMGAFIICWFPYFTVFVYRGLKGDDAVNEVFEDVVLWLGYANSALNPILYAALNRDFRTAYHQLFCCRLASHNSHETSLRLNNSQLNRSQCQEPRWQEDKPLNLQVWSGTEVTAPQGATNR
T2 sequence (P47747 whole entry): as above

As usually defined, the IC50 is the point on the concentration scale where inhibition reaches its midpoint. A low value points to inhibition by little substance. What is called LD50 is the dose expected to kill half of the subjects tested. A lower LD50 goes with greater toxicity. As for `CN(C)Cc1ccc(CSCCNC(=O)c2ccc[n+]([O-])c2)o1.Cl.Cl` [CM 57755, N-[2-(5-dimethylaminomethylfuran-2-ylmethylthio)ethyl]-3-pyridinecarboxamide 1-oxide dihydrochloride], the IC50 in data set [1] was determined as 9200 nM; in data set [4] it was 4300 nM. Besides, in data set [1] (conclusion from the IC50 m/IC50 o ratio), the “affinity for the gastric H2 receptors versus the cardiac H2 receptors” value is given as “greater affinity for the gastric H2 receptors than for the cardiac H2 receptors”. The “selectivity of antagonising gastric hypersecretion versus the positive chronotropic action provoked by histamine” value in data set [1] (conclusion from the IC50 m/IC50 o ratio, relative to the reference compounds) is “capable of antagonising gastric hypersecretion more selectively than the positive chronotropic action provoked by histamine”. In data set [1], the “IC50 m/IC50 o” value was determined as 2.13. The “duration of action after the suspension of the treatment” value in data set [2] is reported as “long duration of action after the suspension of the treatment”. Besides, the “activity compared with that of cimetidine” value in data set [2] (on molar basis) is reported as “comparable, on molar basis, to that of the cimetidine”. In data set [2] (venous perfusion and intragastric route), the “antagonism of the hypersecretion provoked by the dimaprit” value is “antagonises in dose-dependent manner”. For the same molecule, in data set [3], the LD50 stood at 300 mg/kg. The “dose inhibiting by 50% the hypersecretion provoked by histamine” value in data set [5] is reported as 0.9 mg/kg.

Consider `CNC(=NC#N)NCCSCc1nc[nH]c1C` [cimetidine, 2-cyano-1-methyl-3-[2[(5-methylimidazol-4-yl)methylthio]ethyl]guanidine, reference compound], for which the “duration of action after the suspension of the treatment” value in data set [2] is listed as “more transient”. Also, the “secondary effects (block of the cardiac H2 receptors may be the cause)” value in the data set on cardiac H2 receptors is “bradycardia and of asystolia”.

For `CNC(=C[N+](=O)[O-])NCCSCc1ccc(CN(C)C)o1` [ranitidine, reference compound], in data set [1], half-maximal inhibition (IC50) required 650 nM and the “IC50 m/IC50 o” value is on record as 7.6. Also, in data set [4], the IC50 is 86 nM.
